Legend:
[1] = target: TAF1-BD2 (Homo sapiens, UniProt P21675); test: TAF1-BD2 TR-FRET Binding Assay; conditions: read-out: TAF1-BD2 HTRF IC50
[2] = target: TAF1-BD1 (Homo sapiens, UniProt P21675); test: TAF1-BD1 TR-FRET Binding Assay; conditions: read-out: TAF1-BD1 HTRF IC50

| Compound | IC50 [1] [nM] | IC50 [2] [nM] |
| --- | --- | --- |
| Cc1cc([C@](C)(O)C#Cc2cn(C)c(=O)c3[nH]cc(C(=O)OCC(C)C)c23)no1 [Example 54, isobutyl 4-[(3R)-3-hydroxy-3-(5-methylisoxazol-3-yl)but-1-ynyl]-6-methyl-7-oxo-1H-pyrrolo[2,3-c]pyridine-3-carboxylate] | 122 | 179 |
| CCOC(=O)c1c(C)[nH]c2c(=O)n(C)cc(C#CC3(O)CCN(C)C3=O)c12 (centres unmarked) [Example 74, ethyl 4-[2-(3-hydroxy-1-methyl-2-oxo-pyrrolidin-3-yl)ethynyl]-2,6-dimethyl-7-oxo-1H-pyrrolo[2,3-c]pyridine-3-carboxylate] | 209 | 2040 |
| Cc1[nH]c2c(=O)n(C)cc(C#CC(C)(O)CC#N)c2c1C(=O)OC(C)C (centres unmarked) [Example 156, isopropyl 4-(4-cyano-3-hydroxy-3-methyl-but-1-ynyl)-2,6-dimethyl-7-oxo-1H-pyrrolo[2,3-c]pyridine-3-carboxylate] | 106 | 276 |
| CCOC(=O)c1c(C)[nH]c2c(=O)n(C)cc(C#CC3(O)C(=O)N(C)c4ccccc43)c12 (centres unmarked) [Example 86, ethyl 4-[2-(3-hydroxy-1-methyl-2-oxo-indolin-3-yl)ethynyl]-2,6-dimethyl-7-oxo-1H-pyrrolo[2,3-c]pyridine-3-carboxylate] | 98.1 | 581 |
| Cc1[nH]c2c(=O)n(C)cc(C#CC(C)(C)O)c2c1C(=O)OCc1ccccc1F [Example 119, (2-fluorophenyl)methyl 4-(3-hydroxy-3-methyl-but-1-ynyl)-2,6-dimethyl-7-oxo-1H-pyrrolo[2,3-c]pyridine-3-carboxylate] | 26.7 | 145 |
| Cc1cc2c(C#CC(C)(C)O)cn(C)c(=O)c2[nH]1 [Example 198, 4-(3-hydroxy-3-methyl-but-1-ynyl)-2,6-dimethyl-1H-pyrrolo[2,3-c]pyridin-7-one] | 536 | 1740 |
| Cc1[nH]c2c(=O)n(C)cc(C#CC(C)(O)C3CC3)c2c1-c1nnc(C(C)C)o1 (centres unmarked) [Example 191, 4-(3-cyclopropyl-3-hydroxy-but-1-ynyl)-3-(5-isopropyl-1,3,4-oxadiazol-2-yl)-2,6-dimethyl-1H-pyrrolo[2,3-c]pyridin-7-one] | 36.4 | 270 |
| CCOC(=O)c1c(C)[nH]c2c(=O)n(C)cc(C#C[C@@](C)(O)c3cc(C)no3)c12 [Example 69, ethyl 4-[(3R)-3-hydroxy-3-(3-methylisoxazol-5-yl)but-1-ynyl]-2,6-dimethyl-7-oxo-1H-pyrrolo[2,3-c]pyridine-3-carboxylate] | 61 | 210 |
| Cc1[nH]c2c(=O)n(C)cc(C#CC(C)(O)C3CC3)c2c1-c1nnc(C2CCOC2)o1 (single isomer, unassigned) [Example 96b, 4-(3-cyclopropyl-3-hydroxy-but-1-ynyl)-2,6-dimethyl-3-(5-tetrahydrofuran-3-yl-1,3,4-oxadiazol-2-yl)-1H-pyrrolo[2,3-c]pyridin-7-one] | 260 | 1140 |
| Cc1[nH]c2c(=O)n(C)cc(C#CC(C)(C)O)c2c1C(=O)OC(C)(C)CCN [Example 165, (3-amino-1,1-dimethyl-propyl) 4-(3-hydroxy-3-methyl-but-1-ynyl)-2,6-dimethyl-7-oxo-1H-pyrrolo[2,3-c]pyridine-3-carboxylate] | 21.7 | 551 |
| Cc1[nH]c2c(=O)n(C)cc(C#CC(C)(C)O)c2c1C(=O)OCC(C)(C)C [Example 150, 2,2-dimethylpropyl 4-(3-hydroxy-3-methyl-but-1-ynyl)-2,6-dimethyl-7-oxo-1H-pyrrolo[2,3-c]pyridine-3-carboxylate] | 30.4 | 93.6 |
| CCOC(=O)c1c(C)[nH]c2c(=O)n(C)cc(C#CCCO)c12 [Example 82, ethyl 4-(4-hydroxybut-1-ynyl)-2,6-dimethyl-7-oxo-1H-pyrrolo[2,3-c]pyridine-3-carboxylate] | 337 | 1750 |
| Cc1[nH]c2c(=O)n(C)cc(C#CC(C)(O)C3CC3)c2c1C(=O)OC(C)(C)CC#N (centres unmarked) [Example 134, (2-cyano-1,1-dimethyl-ethyl)-4-(3-cyclopropyl-3-hydroxy-but-1-ynyl)-2,6-dimethyl-7-oxo-1H-pyrrolo[2,3-c]pyridine-3-carboxylate] | 26.8 | 222 |
| CCOC(=O)c1c(C)[nH]c2c(=O)n(C)cc(C#CC(C)(C)CO)c12 [Example 15, ethyl 4-(4-hydroxy-3,3-dimethyl-but-1-ynyl)-2,6-dimethyl-7-oxo-1H-pyrrolo[2,3-c]pyridine-3-carboxylate] | 189 | 343 |
| CCOC(=O)c1c(C)[nH]c2c(=O)n(C)cc(C#CC3CCCCC3)c12 [Example 79, ethyl 4-(2-cyclohexylethynyl)-2,6-dimethyl-7-oxo-1H-pyrrolo[2,3-c]pyridine-3-carboxylate] | 584 | 1330 |
| CCOC(=O)c1c(C)[nH]c2c(=O)n(C)cc(C#CC(O)(c3cccc(N)c3)C(F)(F)F)c12 (centres unmarked) [Example 2, ethyl 4-[3-(3-aminophenyl)-4,4,4-trifluoro-3-hydroxy-but-1-ynyl]-2,6-dimethyl-7-oxo-1H-pyrrolo[2,3-c]pyridine-3-carboxylate] | 45.3 | 249 |

| Compound | IC50 [1] [nM] | IC50 [2] [nM] |
| --- | --- | --- |
| CCOC(=O)c1c(C)[nH]c2c(=O)n(C)cc(C#CC(O)(c3ccccc3)C(F)F)c12 (single isomer, unassigned) [Example 93a, ethyl 4-(4,4-difluoro-3-hydroxy-3-phenyl-but-1-ynyl)-2,6-dimethyl-7-oxo-1H-pyrrolo[2,3-c]pyridine-3-carboxylate] | 65.5 | 599 |
| CCOC(=O)c1c(C)[nH]c2c(=O)n(C)cc(C#CC(O)(c3ccccc3)C(F)F)c12 (single isomer, unassigned) [Example 93b, ethyl 4-(4,4-difluoro-3-hydroxy-3-phenyl-but-1-ynyl)-2,6-dimethyl-7-oxo-1H-pyrrolo[2,3-c]pyridine-3-carboxylate] | 21.4 | 176 |
| Cc1[nH]c2c(=O)n(C)cc(C#CC(C)(O)CC#N)c2c1C(=O)OCC(C)C (centres unmarked) [Example 154, isobutyl 4-(4-cyano-3-hydroxy-3-methyl-but-1-ynyl)-2,6-dimethyl-7-oxo-1H-pyrrolo[2,3-c]pyridine-3-carboxylate] | 99.8 | 150 |
| CCOC(=O)c1c(C)[nH]c2c(=O)n(C)cc(C#Cc3ccc(OC)cc3)c12 [Example 58, ethyl 4-[2-(4-methoxyphenyl)ethynyl]-2,6-dimethyl-7-oxo-1H-pyrrolo[2,3-c]pyridine-3-carboxylate] | 38.4 | 315 |
| CCOC(=O)c1c(C)[nH]c2c(=O)n(C)cc(C#CC(C)(C)OC)c12 [Example 26, ethyl 4-(3-methoxy-3-methyl-but-1-ynyl)-2,6-dimethyl-7-oxo-1H-pyrrolo[2,3-c]pyridine-3-carboxylate] | 284 | 503 |
| C=CCCn1cc(C#CC(C)(O)C2CC2)c2c(C(=O)OCC(C)C)c(C)[nH]c2c1=O (centres unmarked) [Example 122, isobutyl 6-but-3-enyl-4-(3-cyclopropyl-3-hydroxy-but-1-ynyl)-2-methyl-7-oxo-1H-pyrrolo[2,3-c]pyridine-3-carboxylate] | 116 | 1710 |
| Cc1[nH]c2c(=O)n(C)cc(C#CC(C)(C)O)c2c1C(=O)NC(C)(C)C [Example 170, N-tert-butyl-4-(3-hydroxy-3-methyl-but-1-ynyl)-2,6-dimethyl-7-oxo-1H-pyrrolo[2,3-c]pyridine-3-carboxamide] | 347 | 3620 |
| CC(=O)NCCC(C)(C)OC(=O)c1c(C)[nH]c2c(=O)n(C)cc(C#CC(C)(C)O)c12 [Example 164, (3-acetamido-1,1-dimethyl-propyl) 4-(3-hydroxy-3-methyl-but-1-ynyl)-2,6-dimethyl-7-oxo-1H-pyrrolo[2,3-c]pyridine-3-carboxylate] | 48.5 | 514 |
| Cc1[nH]c2c(=O)n(C)cc(C#CC(C)(O)C3CC3)c2c1C1=NCC(C)(C)O1 (centres unmarked) [Example 204, 4-(3-cyclopropyl-3-hydroxy-but-1-ynyl)-3-(5,5-dimethyl-4H-oxazol-2-yl)-2,6-dimethyl-1H-pyrrolo[2,3-c]pyridin-7-one] | 147 | 1030 |
| CCOC(=O)c1c(C)[nH]c2c(=O)n(C)cc(C#C[C@@H]3CCC[C@H]3O)c12 (stereo in doubt) [Example 83, ethyl 4-[2-(2-hydroxycyclopentyl)ethynyl]-2,6-dimethyl-7-oxo-1H-pyrrolo[2,3-c]pyridine-3-carboxylate] | 302 | 2590 |
| CCCCC(C)(C)OC(=O)c1c(C)[nH]c2c(=O)n(C)cc(C#CC(C)(O)C3CC3)c12 (centres unmarked) [Example 137, 1,1-dimethylpentyl 4-(3-cyclopropyl-3-hydroxy-but-1-ynyl)-2,6-dimethyl-7-oxo-1H-pyrrolo[2,3-c]pyridine-3-carboxylate] | 79 | 481 |
| Cc1[nH]c2c(=O)n(C)cc(C#CC(C)(C)O)c2c1C(=O)OCC(C)C [Example 132, isobutyl 4-(3-hydroxy-3-methyl-but-1-ynyl)-2,6-dimethyl-7-oxo-1H-pyrrolo[2,3-c]pyridine-3-carboxylate] | 29.9 | 173 |
| CCOC(=O)c1c(C)[nH]c2c(=O)n(C)cc(C#CC(O)(c3cccc(-c4cn[nH]c4)c3)C(F)(F)F)c12 (centres unmarked) [Example 41, ethyl 2,6-dimethyl-7-oxo-4-[4,4,4-trifluoro-3-hydroxy-3-[3-(1H-pyrazol-4-yl)phenyl]but-1-ynyl]-1H-pyrrolo[2,3-c]pyridine-3-carboxylate] | 21.5 | 171 |
| 3-(hydroxymethyl)-4-(3-hydroxy-3-methyl-but-1-ynyl)-2,6-dimethyl-1H-pyrrolo[2,3-c]pyridin-7-one [Example 201] | 2250 | 6050 |
| Cc1[nH]c2c(=O)n(C)cc(C#CC(C)(C)O)c2c1C(=O)NC(C)C [Example 169, 4-(3-hydroxy-3-methyl-but-1-ynyl)-N-isopropyl-2,6-dimethyl-7-oxo-1H-pyrrolo[2,3-c]pyridine-3-carboxamide] | 2670 | 5310 |

Source: patent publication US10202378B2, “Therapeutic compounds and uses thereof” (GENENTECH, INC., priority 2015, dated 2019)
